Test results as given in the CheMixHub ionic liquid set.
± gives the uncertainty stated by the source.

Assay: xn = mol fraction of the nth substance listed

CCCCCCCCCCCC[N+](C)(C)Cc1ccccc1.[Cl-] + O
electrical conductivity (293.15 K, 101 kPa, x1 = 5.874e-05): 0.0232 ± 0.0015 S/m | electrical conductivity (293.15 K, 101 kPa, x1 = 8e-05): 0.0313 ± 0.002 S/m | electrical conductivity (293.15 K, 101 kPa, x1 = 9.982e-05): 0.0388 ± 0.0024 S/m | electrical conductivity (293.15 K, 101 kPa, x1 = 0.0001187): 0.0459 ± 0.0029 S/m | electrical conductivity (293.15 K, 101 kPa, x1 = 0.0001384): 0.0531 ± 0.0033 S/m | electrical conductivity (293.15 K, 101 kPa, x1 = 0.0001594): 0.0603 ± 0.0037 S/m | electrical conductivity (293.15 K, 101 kPa, x1 = 0.000182): 0.0659 ± 0.004 S/m | electrical conductivity (293.15 K, 101 kPa, x1 = 0.0002056): 0.0702 ± 0.0043 S/m | electrical conductivity (293.15 K, 101 kPa, x1 = 0.0002284): 0.0741 ± 0.0045 S/m | electrical conductivity (293.15 K, 101 kPa, x1 = 0.0002522): 0.0778 ± 0.0047 S/m | electrical conductivity (293.15 K, 101 kPa, x1 = 0.0002717): 0.0809 ± 0.0049 S/m | electrical conductivity (293.15 K, 101 kPa, x1 = 0.0002895): 0.0836 ± 0.0051 S/m | electrical conductivity (293.15 K, 101 kPa, x1 = 0.0003122): 0.0872 ± 0.0053 S/m | electrical conductivity (298.15 K, 101 kPa, x1 = 5.874e-05): 0.0261 ± 0.0016 S/m | electrical conductivity (298.15 K, 101 kPa, x1 = 8e-05): 0.0351 ± 0.0022 S/m | electrical conductivity (298.15 K, 101 kPa, x1 = 9.982e-05): 0.0434 ± 0.0027 S/m | electrical conductivity (298.15 K, 101 kPa, x1 = 0.0001187): 0.0513 ± 0.0032 S/m | electrical conductivity (298.15 K, 101 kPa, x1 = 0.0001384): 0.0594 ± 0.0037 S/m | electrical conductivity (298.15 K, 101 kPa, x1 = 0.0001594): 0.0673 ± 0.0042 S/m | electrical conductivity (298.15 K, 101 kPa, x1 = 0.000182): 0.0734 ± 0.0045 S/m | electrical conductivity (298.15 K, 101 kPa, x1 = 0.0002056): 0.0783 ± 0.0048 S/m | electrical conductivity (298.15 K, 101 kPa, x1 = 0.0002284): 0.0827 ± 0.005 S/m | electrical conductivity (298.15 K, 101 kPa, x1 = 0.0002522): 0.0871 ± 0.0053 S/m | electrical conductivity (298.15 K, 101 kPa, x1 = 0.0002717): 0.0906 ± 0.0055 S/m | electrical conductivity (298.15 K, 101 kPa, x1 = 0.0002895): 0.0937 ± 0.0057 S/m | electrical conductivity (298.15 K, 101 kPa, x1 = 0.0003122): 0.0978 ± 0.006 S/m | electrical conductivity (303.15 K, 101 kPa, x1 = 5.874e-05): 0.0289 ± 0.0018 S/m | electrical conductivity (303.15 K, 101 kPa, x1 = 8e-05): 0.0389 ± 0.0025 S/m | electrical conductivity (303.15 K, 101 kPa, x1 = 9.982e-05): 0.0481 ± 0.003 S/m | electrical conductivity (303.15 K, 101 kPa, x1 = 0.0001187): 0.0569 ± 0.0036 S/m | electrical conductivity (303.15 K, 101 kPa, x1 = 0.0001384): 0.0658 ± 0.0041 S/m | electrical conductivity (303.15 K, 101 kPa, x1 = 0.0001594): 0.0744 ± 0.0046 S/m | electrical conductivity (303.15 K, 101 kPa, x1 = 0.000182): 0.0812 ± 0.005 S/m | electrical conductivity (303.15 K, 101 kPa, x1 = 0.0002056): 0.087 ± 0.0053 S/m | electrical conductivity (303.15 K, 101 kPa, x1 = 0.0002284): 0.092 ± 0.0056 S/m | electrical conductivity (303.15 K, 101 kPa, x1 = 0.0002522): 0.0969 ± 0.0059 S/m | electrical conductivity (303.15 K, 101 kPa, x1 = 0.0002717): 0.101 ± 0.0062 S/m | electrical conductivity (303.15 K, 101 kPa, x1 = 0.0002895): 0.105 ± 0.0064 S/m | electrical conductivity (303.15 K, 101 kPa, x1 = 0.0003122): 0.109 ± 0.0067 S/m | electrical conductivity (308.15 K, 101 kPa, x1 = 5.874e-05): 0.0318 ± 0.002 S/m | electrical conductivity (308.15 K, 101 kPa, x1 = 8e-05): 0.0428 ± 0.0027 S/m | electrical conductivity (308.15 K, 101 kPa, x1 = 9.982e-05): 0.053 ± 0.0033 S/m | electrical conductivity (308.15 K, 101 kPa, x1 = 0.0001187): 0.0626 ± 0.0039 S/m | electrical conductivity (308.15 K, 101 kPa, x1 = 0.0001384): 0.0724 ± 0.0045 S/m | electrical conductivity (308.15 K, 101 kPa, x1 = 0.0001594): 0.0819 ± 0.0051 S/m | electrical conductivity (308.15 K, 101 kPa, x1 = 0.000182): 0.0897 ± 0.0055 S/m | electrical conductivity (308.15 K, 101 kPa, x1 = 0.0002056): 0.0963 ± 0.0059 S/m | electrical conductivity (308.15 K, 101 kPa, x1 = 0.0002284): 0.102 ± 0.0062 S/m | electrical conductivity (308.15 K, 101 kPa, x1 = 0.0002522): 0.108 ± 0.0066 S/m | electrical conductivity (308.15 K, 101 kPa, x1 = 0.0002717): 0.113 ± 0.0069 S/m | electrical conductivity (308.15 K, 101 kPa, x1 = 0.0002895): 0.117 ± 0.0071 S/m | electrical conductivity (308.15 K, 101 kPa, x1 = 0.0003122): 0.122 ± 0.0075 S/m | electrical conductivity (313.15 K, 101 kPa, x1 = 5.874e-05): 0.0349 ± 0.0022 S/m | electrical conductivity (313.15 K, 101 kPa, x1 = 8e-05): 0.0469 ± 0.003 S/m | electrical conductivity (313.15 K, 101 kPa, x1 = 9.982e-05): 0.0579 ± 0.0037 S/m | electrical conductivity (313.15 K, 101 kPa, x1 = 0.0001187): 0.0686 ± 0.0043 S/m | electrical conductivity (313.15 K, 101 kPa, x1 = 0.0001384): 0.0792 ± 0.005 S/m | electrical conductivity (313.15 K, 101 kPa, x1 = 0.0001594): 0.0899 ± 0.0056 S/m | electrical conductivity (313.15 K, 101 kPa, x1 = 0.000182): 0.0989 ± 0.0061 S/m | electrical conductivity (313.15 K, 101 kPa, x1 = 0.0002056): 0.106 ± 0.0065 S/m | electrical conductivity (313.15 K, 101 kPa, x1 = 0.0002284): 0.113 ± 0.0069 S/m | electrical conductivity (313.15 K, 101 kPa, x1 = 0.0002522): 0.12 ± 0.0073 S/m | electrical conductivity (313.15 K, 101 kPa, x1 = 0.0002717): 0.125 ± 0.0076 S/m | electrical conductivity (313.15 K, 101 kPa, x1 = 0.0002895): 0.13 ± 0.0079 S/m | electrical conductivity (313.15 K, 101 kPa, x1 = 0.0003122): 0.136 ± 0.0083 S/m

CCCCCCCCCC[N+](CC)(CC)CCCCCCCCCC.[Br-] + O
electrical conductivity (290.55 K, 101 kPa, x1 = 0.0004187): 0.031 ± 0.013 S/m | electrical conductivity (290.75 K, 101 kPa, x1 = 0.0004187): 0.033 ± 0.013 S/m | electrical conductivity (290.85 K, 101 kPa, x1 = 0.0004187): 0.034 ± 0.014 S/m | electrical conductivity (292.05 K, 101 kPa, x1 = 0.0004187): 0.053 ± 0.022 S/m | electrical conductivity (301.55 K, 101 kPa, x1 = 0.0004187): 0.079 ± 0.032 S/m | electrical conductivity (303.15 K, 100 kPa, x1 = 1.08e-06): 0.0029 ± 0.0012 S/m | electrical conductivity (304.55 K, 101 kPa, x1 = 0.0004187): 0.082 ± 0.033 S/m | electrical conductivity (306.65 K, 101 kPa, x1 = 0.0004187): 0.084 ± 0.034 S/m | electrical conductivity (311.65 K, 101 kPa, x1 = 0.0004187): 0.089 ± 0.036 S/m

CCCC[n+]1ccccc1.O=S(=O)([O-])C(F)(F)F + O
electrical conductivity (298.15 K, 101 kPa, x1 = 0.000164): 0.071 ± 0.02 S/m | electrical conductivity (298.15 K, 101 kPa, x1 = 0.0004107): 0.156 ± 0.02 S/m | electrical conductivity (298.15 K, 101 kPa, x1 = 0.0005313): 0.208 ± 0.02 S/m | electrical conductivity (298.15 K, 101 kPa, x1 = 0.0007077): 0.277 ± 0.02 S/m | electrical conductivity (298.15 K, 101 kPa, x1 = 0.0008912): 0.323 ± 0.02 S/m | electrical conductivity (298.15 K, 101 kPa, x1 = 0.001062): 0.395 ± 0.02 S/m | electrical conductivity (298.15 K, 101 kPa, x1 = 0.001253): 0.46 ± 0.02 S/m | electrical conductivity (298.15 K, 101 kPa, x1 = 0.001353): 0.501 ± 0.02 S/m | electrical conductivity (298.15 K, 101 kPa, x1 = 0.001468): 0.53 ± 0.02 S/m | electrical conductivity (298.15 K, 101 kPa, x1 = 0.001598): 0.586 ± 0.02 S/m | electrical conductivity (298.15 K, 101 kPa, x1 = 0.001845): 0.651 ± 0.02 S/m | electrical conductivity (298.15 K, 101 kPa, x1 = 0.001955): 0.674 ± 0.02 S/m | electrical conductivity (298.15 K, 101 kPa, x1 = 0.002188): 0.732 ± 0.02 S/m | electrical conductivity (298.15 K, 101 kPa, x1 = 0.002246): 0.746 ± 0.02 S/m | electrical conductivity (298.15 K, 101 kPa, x1 = 0.002362): 0.777 ± 0.02 S/m | electrical conductivity (298.15 K, 101 kPa, x1 = 0.002429): 0.785 ± 0.02 S/m | electrical conductivity (298.15 K, 101 kPa, x1 = 0.002452): 0.795 ± 0.02 S/m | electrical conductivity (298.15 K, 101 kPa, x1 = 0.002604): 0.836 ± 0.02 S/m | electrical conductivity (298.15 K, 101 kPa, x1 = 0.002771): 0.869 ± 0.02 S/m | electrical conductivity (298.15 K, 101 kPa, x1 = 0.00288): 0.909 ± 0.02 S/m | electrical conductivity (298.15 K, 101 kPa, x1 = 0.003079): 0.96 ± 0.02 S/m
